Laboratory results taken from publication PMC6530361, “Anti-tumor Efficacy Assessment of the Sigma Receptor Pan Modulator RC-106. A Promising Therapeutic Tool for Pancreatic Cancer” (Frontiers in Pharmacology, 2019).
Read-outs that look alike come from different tables or passages of the source.

Columns and labels:
Format in all cases: cell-based
Panc-1 [1] = experiment: MTS assay (cell viability, 2D); details: Homo sapiens
Procedure: Pancreatic adenocarcinoma Panc-1, Capan-1, and Capan-2, cell lines were purchased by the ATCC. All cell lines were grown in culture medium composed of DMEM/Ham’s F12 (1:1; Euroclone) supplemented with fetal calf serum (10%; Euroclone), glutamine (2 mM; Euroclone), and insulin (10 μg/mL; Sigma-Aldrich, St. Louis, MO, United States). All experiments were performed on cells in the exponential growth phase and checked periodically for mycoplasma contamination by MycoAlert^TM Mycoplasma Detection Kit (Lonza, Basel, Switzerland).
Cytotoxicity was assayed using CellTiter 96® AQueous One Solution Cell Proliferation Assay (Promega, Milan, Italy). Cells were seeded onto a 96-well plate at a density of 3 × 10^3 cells per well. Cell lines were exposed to increasing concentrations of the drug, ranging from 0.1 to 100 μM. The effect of the drug was evaluated after 24, 48, and 72 h of continued exposure. Two independent experiments were performed in octuplicate. The OD of treated and untreated cells was determined at a wavelength of 490 nm using a […].
Dose response curves were created by Excel software. IC50 values were determined graphically from the plot.

Capan-1 [2] = experiment: Western Blot of caspase 3 and 9 activation; details: Capan-1, 12 h, 50 μM
Procedure: (§1) Western Blot were performed as previously described ([Arienti et al., 2016]). Briefly, Cell proteins were extracted with M-PER (Thermo Fisher Scientific) supplemented with Halt Protease Phosphatase Inhibitor Cocktail (Thermo Fisher Scientific).
(§2) Mini-PROTEANTGX^TM precast gels (4–20% and any kD; BIO-RAD) were run using Mini-PROTEAN Tetra electrophoresis cells and then electroblotted by Trans-Blot Turbo^TM Mini PVDF Transfer Packs (BIORAD). The unoccupied membrane sites were blocked with T-TBS 1X (Tween 0.1%) and 5% non-fat dry milk to prevent non-specific binding of antibodies and probed with specific primary antibodies overnight at 4°C. This was followed by incubation with the respective secondary antibodies. The antibody-antigen complexes were detected with Immun-Star^TM WesternC^TM kit (BIO-RAD).
(§3) The following primary antibodies were used: anti-sigma receptor (S18): sc-22948 (Santa Cruz Biotechnology inc.), anti-TMEM97, anti-caspase-3, and anti-caspase-9. Anti-vinculin (sc-5573) from Santa Cruz Biotechnology and anti-actin from Sigma Aldrich Inc., were used as housekeeping. Quantity One Software was used for analysis.

Capan-2 [3] = experiment: Western Blot of caspase 3 and 9 activation; details: Capan-2, 48 h, 25 μM
Procedure: as §1, §2, §3

Panc-1 [4] = experiment: Western Blot of caspase 3 and 9 activation; details: Panc-1, 48 h, 25 μM
Procedure: as §1, §2, §3

Capan-2 [5] = experiment: Real-Time qRT-PCR of ER stress/UPR marker genes; details: Capan-2, RC-106 50 μM, higher than untreated cells
Procedure: Total cellular RNA was extracted using TRIzol reagent (Life technologies) in accordance with manufacturer’s instruction and quantified using the Nanodrop MD-1000 spectrophotometer system. Reverse transcription reactions were performed in 20 μL of nuclease free water containing 400 ng of total RNA using iScript cDNA Synthesis kit (Bio-Rad Laboratories, Hercules, CA). Real-Time PCR was run using 7500 Fast Real-Time PCR system (Applied Biosystems) and TaqMan assays to detect the expression of SIGMAR1, TMEM97, GRP78/BiP, ATF4, and CHOP genes.
Reactions were carried out in triplicate at a final volume of 20 μL containing 40 ng of cDNA template, TaqMan universal PCR Master Mix (2X), and selected TaqMan assays (20X). Samples were maintained at 50°C for 2 min, then at 95°C for 10 min followed by 40 amplification cycles at 95°C for 15 s, and at 60°C for 30 s.
The amount of mRNA was normalized to the endogenous genes GAPDH and HPRT-1.

[6] = test system: proteasome activity of PANC-1, Capan-1, and Capan-2; experiment: Proteasome activity assay, all cell lines; details: 20–100 μM, 24 h, all PC cell lines
Procedure: Cells were seeded in 6-well plates at density of 250 × 10^3 cells/well. Cells were treated with increasing concentration of RC-106 and after 24 h total protein extracts were obtained: cells were washed 2 times with PBS and lysed with 100 μL of lysis buffer (Hepes 5 mM pH 7.5, NaCl 150 mM, Glycerol 10%, Triton X100 1%, MgCl2 1.5 mM, EGTA 5 mM). Protein concentration of samples was quantified using Bradford method. Proteasome activity was quantified as described below. Proteasome solution was composed by 40 μg of proteins, 10 μL of 10X proteasome buffer (Hepes pH 7.5 250 mM, EDTA pH 8.0 5 mM, NP-40 0.5%, SDS 0.01%) and 10 μL of 10 mM proteasome substrate (N-Succinyl-Leu-Leu-Val-Tyr-7-Amido-4-Methylcoumarin, 7.6 mg/mL; Sigma-Aldrich, United States). 100 μL of proteasome solution was loaded in wells of a black 96-well plate. The plate was then incubated at 37°C for 2 h and the fluorescence was measured in a microplate reader (excitation 380 nm, emission 460 nm; BMG-Labtech, Germany).

Capan-1 [7] = experiment: Migration scratch wound healing assay
Procedure: (§4) Cells were seeded in a 6-well plate and were incubated at 37°C until confluence of 90–100% was reached. Culture medium was then replaced by serum free medium. After 24 h, a scratch was made on cell monolayer using a plastic tip and wells were washed 2 times with PBS to remove detached cells and debris. Culture medium, with or without RC-106, was added to each well. Micrographs of the scratches were taken at 0 h, immediately after the scratch, and at 24, 48, and 72 h. Cell migration area was quantified using IMAGEJ software.

Capan-2 [8] = experiment: Migration scratch wound healing assay; details: Capan-2, 20 and 40 μM, after 48 and 72 h
Procedure: as §4

Panc-1 [9] = experiment: Migration scratch wound healing assay; details: Panc-1, 60 μM, all considered time points (24, 48, 72 h)
Procedure: as §4

Work on C/C(=C\CN1CCC(Cc2ccccc2)CC1)c1ccc2ccccc2c1 [RC-106, (E)-4-benzyl-1-(3-(naphthalen-2-yl)but-2-en-1-yl)piperidine] yielded an IC50 (Panc-1 [1]; PANC-1, 24 h exposure, read-out: IC50 values 24h) of 55.3 ± 0.7 µM, an IC50 (Panc-1 [1]; PANC-1, 48 h exposure, read-out: IC50 values 48h) of 51.7 ± 1.38 µM and an IC50 (Panc-1 [1]; PANC-1, 72 h exposure, read-out: IC50 values 72h) of 52.1 ± 0.47 µM. For the same compound, the “caspases 3 and 9 cleavage” value (Capan-1 [2]) was “cleaved”, the “caspases 3 and 9 cleavage” value (Capan-2 [3]) was “cleaved” and the “caspases 3 and 9 cleavage” value (Panc-1 [4]) was “cleaved”. The “increase in expression of CHOP mRNA” value (Capan-2 [5]) was 70 fold, the proteasome activity [6] was “reduce proteasome activity in a dose dependent manner” and the cell migration (Capan-1 [7]; Capan-1, 20 μM, after 48 h) was “significantly reduced”. The cell migration (Capan-1 [7]; Capan-1, 40 and 60 μM, after 24 h) was “reduced cell migration”, the cell migration (Capan-2 [8]) was “significatively reduceded” and the cell migration (Panc-1 [9]) was “significatively reduced”.
